Legend:
soleus muscle [1] = test: Glucose transport (2-deoxy-D-glucose uptake) in incubated soleus muscle strips; assay type: cell-based, rat
Protocol: (§1) Soleus muscle preparation. All experiments were performed according to protocols approved by the Institutional Animal Ethics Committee. 5-6 week-old male Wistar rats (160 g) were kept on a 12:12-h light/dark cycle, and fed and watered ad libitum. Animals were anaesthetised with 50 mg/kg Nembutal (pentobarbitone sodium), then sacrificed by cervical dislocation. Soleus muscles were dissected under oxygenated KHB (118 mM NaCl, 4.75 mM KCl, 1.2 mM MgSO4, 24.8 mM NaHCO3, 1.2 mM KH2PO4, 2.54 mM CaCl2, 10 mM glucose, pH 7.4) and teased into halves, then incubated as described below.
Determination of rates of glucose transport in incubated soleus muscle strips. 4-5 muscle strips were added to each flask, which contained 10 ml DMEM. They were pre-incubated with hormones as indicated for 30 min at 30° C. in a shaking water bath, after which 5 μl of 2[^3H]DOG (0.5 μCi/ml) and 5 μl D[^14C(U)]sorbitol (0.05 μCi/ml) were added, then incubated for another 30 min; RIA grade BSA was added to 0.9% (w/v) to prevent non-specific binding of insulin to flasks. Following incubation, muscle strips were transferred to ice-cold KHB for 5-10 min to remove excess [^3H]DOG and [^14C]sorbitol. They were then blotted, frozen, tendons excised, then lyophilized for a further 48 h. Muscles were then weighed, transferred to scintillation vials and digested with 0.5 ml 1 M NaOH at 60° C. for 1 h. Scintillation fluid (4 ml) was added to each vial, and samples counted in a Beckman liquid scintillation spectrometer, preset to count ^14C and ^3H channels simultaneously. The amount of each isotope present in the samples was determined and used to calculate the extracellular space and the intracellular concentration of [^3H]DOG. The accumulation of intracellular [^3H]DOG, a measure of muscle glucose uptake, was calculated by subtracting the concentration of [^3H]DOG in the extracellular space from the corresponding total muscle [^3H]DOG]; extracellular [^3H]DOG was quantified by measuring the muscle concentration of [^14C]sorbitol.
Data analysis. One way ANOVA, Dunnett's Multiple Comparisons Test, and unpaired Student's t-tests were used to calculate the statistical significance of differences, as appropriate. Dose-response curves were fitted to a sigmoidal dose-response algorithm, as follows: Y=minimum+(maximum−minimum)/([…] log ^(EC50^−X), for 2-DOG-uptake; and by a four parameter logistic model, Y=minimum+(maximum−minimum)/(1+10 log ^(EC50^−X)Hill-Coefficient) for total glycogen and [^14C]glucose incorporation. Calculations were performed using Prism v2.0 (GraphPad Software, San Diego, Calif.) to derive values for half-maximal effective concentration (EC50). Displacement curves derived for competition of bound radioligand with cold ligand in transfected cells were calculated according to a one site competition fit using Prism v2.0.

soleus muscle [2] = test: cAMP content of isolated soleus muscle from high fat-fed rats; assay type: cell-based, rat
Protocol: as §1
For the measurement of cAMP in muscle, isolated soleus strips were incubated with stated concentrations of peptides, then lyophilized and deproteinized. Each strip was placed in 400 μl of 0.5 M HClO4 with 5 mM EDTA (phosphodiesterase inhibitor) and sonicated three times in 20 s bursts. Tubes were heated for 3-5 min in boiling water to coagulate protein, then centrifuged (12,000 g, 4° C., 2 min). Supernatant (300 μl) was taken and the pH adjusted to 7.0 with 75 μl of 2 M NH4OH. The samples were refrigerated (4° C., 2 h) to precipitate proteins, then centrifuged under the same conditions as above and 50 μl taken for cAMP measurement.

Wistar rats [3] = test: Serum hormones and blood metabolites following acute CGRP infusion in anaesthetised normal-fed rats; assay type: in vivo, rat; conditions: end vs commencement of infusion
Protocol: (§2) Surgery. Experiments were performed on male Wistar rats. Animals were randomly assigned to experimental groups as outlined below. Induction and maintenance of surgical anesthesia was by 3-5% halothane and 2L oxygen. An initial blood sample was taken from a tail artery for measurement of baseline levels of blood glucose and lactate, electrolyte, acid base and oxygen status and serum levels of free fatty acids, triglyceride and cholesterol. Immediately following this, the trachea was cannulated and the animal ventilated at 60-70 breaths.min-1 with air supplemented with O2. The respiratory rate and end-tidal pressure (10-15 cmH2O) were adjusted to maintain end-tidal CO2 at 35-40 mmHg. Body temperature was maintained at 37° C. throughout surgery and the experiment by a heating pad. The carotid artery and jugular vein were cannulated with a solid-state blood pressure transducer and a saline filled PE 50 catheter respectively. For the antagonist infusion studies, surgery was similar to above with the alteration being that both the carotid artery and jugular vein were cannulated with saline filled PE 50 catheters. Fluids (saline or hormone dissolved in saline) were delivered to the jugular vein with a Y-connector to join the two lines. The carotid artery line was connected to a blood pressure transducer. Blood samples were taken from this line at time zero (baseline reading), 30 minutes and every 20 minutes until the end of the experiment at 90 minutes.
Infusion. […] Blood glucose measurements were taken from tail capillaries at 5-minute intervals throughout the duration of the experiment. At the end of the infusion a terminal blood sample was taken by cardiac puncture and analysed as per the basal sample and also for various metabolites and hormones. Serum and plasma samples were stored at −80° C. until future analysis. Animals were killed by cervical dislocation and harvested tissues (brain, liver, kidney, soleus muscle, extensor digitorum longus muscle, left ventricle, retroperitoneal and epididymal fat pads) snap frozen in liquid N2 and stored at −80° C. until future analysis.

Wistar rats [4] = test: Tissue free fatty acid and triglyceride content following infusion in normal-fed rats; assay type: in vivo, rat
Protocol: as §2
Infusion. […] Blood glucose measurements were taken from tail capillaries at 5-minute intervals throughout the duration of the experiment. At the end of the infusion a terminal blood sample was taken by cardiac puncture and analysed as per the basal sample and also for various metabolites and hormones. Serum and plasma samples were stored at −80° C. until future analysis. Animals were killed by cervical dislocation and harvested tissues (brain, liver, kidney, soleus muscle, extensor digitorum longus muscle, left ventricle, retroperitoneal and epididymal fat pads) snap frozen in liquid N2 and stored at −80° C. until future analysis. For the antagonist studies, the protocols was the same as above with the following changes: Infusion was a combination of antagonist, CGRP or saline.

Rat amylin
decrease of insulin-stimulated glucose uptake (soleus muscle [1]; amylin 10 nM, insulin 23.7 nM): 31%
2-DOG-uptake, insulin-stimulated (soleus muscle [1]; amylin (10 nM) + insulin (23.7 nM)): 19.5±3.6 nmol/g dry-wt muscle/min
2-DOG-uptake (soleus muscle [1]; hormone alone (amylin 10 nM; insulin 23.7 nM), basal 8.8 ± 0.9): 13.4 ± 2.4 nmol/g dry-wt muscle/min

rat CGRP-1
cAMP content, agonist alone (soleus muscle [2]; 1 pM CGRP, control 5.7±0.2): 8.6 ± 0.4 pmol/mg
cAMP content, agonist alone (soleus muscle [2]; 100 nM CGRP1, control 5.7±0.2): 9.3 ± 1 pmol/mg
Change in [serum] Triglyceride (Wistar rats [3]; CGRP 60 min, CGRP-(8-37) 90 min, control 0.2): -0.7 mmol/L
Change in [serum] FFA (Wistar rats [3]; control −0.1): 0.4 mmol/L
Change in Lactate (Wistar rats [3]; heparinised whole blood, control 0.3): 1.7 mmol/L
FFA content, Heart (Wistar rats [4]; CGRP 100 pmol/kg/min 1 h, CGRP-(8-37) 10 nmol/kg/min 90 minutes, control 0.8 ± 0.2): 0.9 ± 0.1 µmol/g
FFA content, Liver (Wistar rats [4]; same infusions, control 0.1 ± 0.01): 0.7 ± 0.1 µmol/g
FFA content, Soleus Muscle (Wistar rats [4]; same infusions, control 0.2 ± 0.02): 0.6 ± 0.07 µmol/g
FFA content, Kidney (Wistar rats [4]; same infusions, control 0.8 ± 0.1): 0.9 ± 0.2 µmol/g
FFA content, Epi Adipose (Wistar rats [4]; same infusions, control 2.1 ± 0.5): 2.7 ± 0.7 µmol/g
triglyceride content, Kidney (Wistar rats [4]; same infusions, control 2.8 ± 0.5): 2.4 ± 0.4 µmol/g
triglyceride content, Heart (Wistar rats [4]; same infusions, control 2.9 ± 0.4): 2.6 ± 0.4 µmol/g
triglyceride content, Soleus Muscle (Wistar rats [4]; same infusions, control 3.7 ± 0.4): 1.5 ± 0.2 µmol/g
triglyceride content, Liver (Wistar rats [4]; same infusions, control 4.3 ± 0.3): 2.2 ± 0.5 µmol/g
triglyceride content, Epi Adipose (Wistar rats [4]; same infusions, control 5.1 ± 1.2): 5.0 ± 0.9 µmol/g

— patent US20040038861A1, “Methods and compositions for normalizing lipid levels in mammalian tissues” (priority 2001, published 2004)
